# Laboratory results reported in BindingDB's records for doi:10.1074/jbc.M607293200 (The Scripps Research Institute, 2007).
# Molecular target: T1, Phosphoribosylglycinamide formyltransferase (Escherichia coli (strain K12), UniProt P08179)
# T1 sequence (P08179 whole entry): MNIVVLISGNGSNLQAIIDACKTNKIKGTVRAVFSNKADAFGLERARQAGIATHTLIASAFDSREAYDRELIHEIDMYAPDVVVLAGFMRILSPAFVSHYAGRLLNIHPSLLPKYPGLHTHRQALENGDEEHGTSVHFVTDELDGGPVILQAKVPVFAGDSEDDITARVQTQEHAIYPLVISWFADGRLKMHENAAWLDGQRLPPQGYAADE
# Experiment: GAR Tfase Activity Assay
# Conditions: pH 7.5; 26 °C
row,Compound,Ki [µM]
1,"O=C1NS(=O)(=O)Nc2nc[nH]c21 [1H,3H,4H,7H-2,1,3,5,7-imidazo[4,5-c][1,2,6]thiadiazine-2,2,4-trione]",> 100
2,"Nc1nc2c(c(=O)[nH]1)C[C@@H](CCc1ccc(C(=O)N[C@@H](CCC(=O)O)C(=O)O)cc1)CN2 [5,10-dideazatetrahydrofolic acid]",0.1
3,"O=C1NS(=O)(=O)Nc2c1ncn2[C@@H]1O[C@H](CO)[C@@H](O)[C@H]1O [7-[(2R,3R,4S,5R)-3,4-dihydroxy-5-(hydroxymethyl)oxolan-2-yl]-1H,3H,4H,7H-2,1,3,5,7-imidazo[4,5-c][1,2,6]thiadiazine-2,2,4-trione]",> 100
4,"O=C1NS(=O)(=O)Nc2c1ncn2[C@@H]1O[C@H](COP(=O)(O)O)[C@@H](O)[C@H]1O [{[(2R,3S,4R,5R)-3,4-dihydroxy-5-(2,2,4-trioxo-1H,3H,4H,7H-2,1,3,5,7-imidazo[4,5-c][1,2,6]thiadiazin-7-yl)oxolan-2-yl]methoxy}phosphonic acid]",> 100
